Data published in US12685777B2, “Compositions, systems, and methods for modulating a target gene” (The Board of Trustees of the Leland Stanford Junior …, priority 2022, dated 2026).
Where two headings read alike, the source gives them in different places.

What was measured:
[1] = molecular target: T1, bromodomain 1 of BRD4 and BTB domain of BCL6 (Homo sapiens, UniProt O60885+P41182, C67R/C84N/C8Q); experiment: TR-FRET assay of ternary complex formation; format: binding; settings: 1 hr at room temperature, 520 nm/490 nm ratio
T1 construct: contains amino acids 5-129 with three mutations, C8Q, C67R, C84N
Method: Reaction was incubated for 1 hr at room temperature, and subsequently the fluorescence at 520 nm and 490 nm was measured. The 520 nm/490 nm ratio is plotted respective to DMSO control. The two lower curves are performed by addition of Neg1 and Neg2 instead of JWZ-7-7. […] The structure of JWZ-7-7 is provided in FIG. 2 and the structures of Neg1 and Neg2 are provided below:
Each reaction contained 100 nM BRD4^BD1, 100 nM BCL6BTB-Avi-Biot, 20 nM Streptavidin-FITC (Thermo #SA1001), and 1:400 anti-6×His terbium antibody (PerkinElmer #61H12TLF) in 10 μL of buffer containing 20 mM HEPES, 150 mM NaCl, 0.1% BSA, 0.1% NP-40, and 1 mM TCEP in a 384-well plate. Protein was incubated with drug digitally dispensed (Tecan D300e) for 1 hour in the dark at room temperature before excitation at 337 nm and measurement of emission at 520 nm (FITC) and 490 nm (terbium) with a PHERAstar FS plate reader (BMG Labtech). The ratio of signal at 520 nm to 490 nm was calculated and normalized to DMSO-treated conditions, and plotted.

[2] = tested on: gene expression in KARPAS422 cells; experiment: RNA-seq of drug-treated KARPAS422 cells; format: cell-based, human
Method: 12. RNA Extraction, qPCR, and Sequencing Library Preparation Cells were plated at 1 M/mL and harvested in TRIsure (Bioline #38033). RNA was extracted using Direct-zol RNA MicroPrep columns (Zymo #R^2062) treated with DNAseI. cDNA was prepared for RT-qPCR using the SensiFAST cDNA preparation kit according to manufacturer instructions (Bioline #65054). 1 μL of cDNA was used per RT-qPCR reaction prepared with SYBR Lo-ROX (Bioline #94020). For sequencing library preparation, polyA-containing transcripts were enriched for (NEB #E7490S) and prepared into paired-end libraries (NEB #E7760S). Libraries were sequenced on an Illumina NovaSeq (Novogene). 13. Western Blots
(www.bioinformatics.babraham.ac.uk/projects/fastqc/) and trimmed from adapters using cutadapt (Martin, M., EMBnet.journal (2011) 17: 10) using parameters cutadapt—a […] -b (SEQ ID NO:01) […] (SEQ ID NO:02) -nextseq-trim=20-minimum-length 1. Transcripts were quantified using kallisto (Bray et al., Nature Biotechnology (2016) 34: 525-527) against the human Gencode v33 indexed transcriptome and annotations. […] 15. ChIP-Seq Experiment and Library Preparation
Because a high percentage of the TCIP1-treated cells contain fragmented DNA by TUNEL assay at 24 hours (FIG. 31, Panel E), many of the “reduced genes” could reflect DNA fragmentation as part of the apoptotic process and digestion to mononucleosomes. Among the group of genes whose expression was most reduced were MYC and its targets (FIGS. 33B, 36C). The top 100 most TCIP1-reduced genes were examined using ChIP-seq data of human transcription factors in blood cancer cell lines, and found the promoters of TCIP1-inhibited genes highly enriched for MYC binding in multiple datasets (FIG. 33, Panel C). This is significant since many DLBCLs are considered to be MYC-dependent.
Almost all differential genes were increasingly activated at 4 hours compared to negligible effects of the control molecules Neg1 and Neg2 (FIG. 35, Panel B).

KARPAS422 = experiment: Cell viability (resazurin/PrestoBlue) of KARPAS422 DLBCL cells; format: cell-based, human
Method: 30,000 cells were plated in 100 μL media per well of a 96 well plate and treated with drug for indicated times and doses. A resazurin-based indicator of cell health (PrestoBlue, ThermoFisher #P50200) was added for 1.5 hours after which the fluorescence ratio at 560/590 nm was recorded. The background fluorescence was subtracted and the signal was normalized to DMSO-treated cells. EC50 measurements on cell lines were done with 4 biological repeats by separate cell passages maintained by 3 independent investigators. Fit of dose-response curves to data and statistical analysis was performed using drc package in R using the four-parameter log-logistic function.
These molecules were tested for their effect on viability of the chemotherapy (CHOP, or cyclophosphamide, hydroxydaunorubicin, Oncovin, and prednisone)-resistant DLBCL cell line, KARPAS422. […] Cell killing was essentially complete at 72 hours (FIG. 27, Panel D).

Compound | Ternary complex formation (TR-FRET) [1] | Number of genes activated ([2]; 10 nM, 2 hours, KARPAS422) | Median change of activated genes ([2]; 10 nM, 20 hours, KARPAS422) | Number of genes increased in expression ([2]; 10 nM, 20 hours, KARPAS422) | Number of genes reduced in expression ([2]; 10 nM, 20 hours, KARPAS422) | Increase of CDKN1A (p21) expression ([2]; RNA-seq, 20 hours, KARPAS422) | EC50 (KARPAS422; KARPAS422 (CHOP-resistant, TP53-mutant DLBCL), 72 hours after addition of drug, read-out: EC50 of cell killing / cell viability) | EC50 (KARPAS422; KARPAS422, without cell cycle arrest, read-out: EC50 of cell viability without arrest) | BCL6 repressed genes activated ([2]; RNA-seq) | EC50 (KARPAS422; Homo sapiens, KARPAS-422, KARPAS422 (CHOP-resistant, TP53-mutant DLBCL), 72 hours after addition of drug, read-out: EC50 of cell killing / cell viability)
CNC(=O)COc1cc2cc(Nc3nc(N4CCC(C(=O)NCCCCCCCNC(=O)C[C@@H]5N=C(c6ccc(Cl)cc6)c6c(sc(C)c6C)-n6c(C)nnc65)CC4)ncc3Cl)cc(OC)c2n(C)c1=O [TCIP1] | detected | 140 genes | 4 fold | 1,674 genes | 1,364 genes | about 64 fold | 1.3 nM | 1.1 nM |  | 
CNC(=O)COc1cc2cc(Nc3nc(N4CCC(C(=O)NCCCCCCCNC(=O)C[C@@H]5N=C(c6ccc(Cl)cc6)c6c(sc(C)c6C)-n6c(C)nnc65)CC4)ncc3Cl)cc(OC)c2n(C)c1=O [JWZ-7-7, (S)-1-(5-chloro-4-((8-methoxy-1-methyl-3-(2-(methylamino)-2-oxoethoxy)-2-oxo-1,2-dihydroquinolin-6-yl)amino)pyrimidin-2-yl)-N-(7-(2-(4-(4-chlorophenyl)-2,3,9-trimethyl-6H-thieno[3,2-f][1,2,4]triazolo[4,3-a][1,4]diazepin-6-yl)acetamido)heptyl)piperidine-4-carboxamide] | showed ternary complex formation |  |  |  |  |  |  |  | 60% | 1.3 nM
